Patent US20250304571A1, “BIOLOGICALLY ACTIVE COMPOUNDS AND METHODS THEREOF” (Suzhou Keen Therapeutics Co., Ltd., priority 2022, published 2025)

What follows are molecules tested on 786-O (renal cell carcinoma) cells (assay: Cell viability (CellTiter Glo) assay, inhibition of 786-O cell proliferation). Settings: Homo sapiens, 786-0, 72 h, read-out: IC50, inhibition of 786-O cell proliferation.
Type: cell-based
For `CN1CCN=C1OCc1ncc2c(n1)N(c1ccc(Oc3ccccc3)cc1)CC2(C)C` [Compound E140], the IC50 was 500 to 5000 nM. `CN(C)C(=N)OCc1ncc2c(n1)N(c1ccc(OC3CCOCC3)nc1)CC21CC1` [Compound E147] was tested, and the IC50 was greater than 5000 nM.

Same assay, conditions: Homo sapiens, 786-0; 786-O cells, 72 hours, CellTiter Glo; read-out: IC50, inhibition of 786-O cell proliferation
Work on `CN(CC(F)(F)F)C(=N)OCc1ncc2c(n1)N(c1ccc(Oc3ccccc3)cc1)CC2(C)C` [Compound E136] yielded an IC50 of less than 100 nM. Molecule `CC(C)N(CC(F)(F)F)C(=N)OCc1ncc2c(n1)N(c1ccc(Oc3ccccc3)cc1)CC21CC1` [Compound E137] has an IC50 of less than 100 nM. `CC(C)N(CC(F)(F)F)C(=N)OCc1ncc(C(C)(C)O)c(Nc2ccc(Oc3ccccc3)cc2)n1` [Compound E138] gave an IC50 of 100 to 500 nM. Molecule `CC(C)N(CC(F)(F)F)C(=N)OCc1ncc2c(n1)N(c1ccc(OC3CC3)nc1)C(=O)C21CC1` [Compound E139] has an IC50 of 500 to 5000 nM. Molecule `CC(C)N(CC(F)(F)F)C(=N)OCc1ncc2c(n1)N(c1ccc(N3CCOCC3)nc1)CC21CC1` [Compound E141] has an IC50 of 100 to 500 nM. Molecule `CC(C)N(CC(F)(F)F)C(=N)OCc1ncc2c(n1)N(c1cccc(Oc3ccccc3)c1)CC21CC1` [Compound E142] has an IC50 of 500 to 5000 nM. `CC(C)N(CC(F)(F)F)C(=N)OCc1ncc2c(n1)N(c1ccccc1Oc1ccccc1)CC21CC1` [Compound E143] was tested, and the IC50 was 100 to 500 nM. For `CC(C)N(CC(F)(F)F)C(=N)OCc1ncc2c(n1)N(c1cccc(OC3CCOCC3)c1)CC21CC1` [Compound E144], the IC50 was 500 to 5000 nM. Molecule `CC(C)N(CC(F)(F)F)C(=N)OCc1ncc2c(n1)N(c1ccc(OC3CCOCC3)cc1)CC21CC1` [Compound E145] has an IC50 of 100 to 500 nM. `N=C(OCc1ncc2c(n1)N(c1ccc(OC3CCOCC3)nc1)CC21CC1)N1CC(F)(F)C1` [Compound E146] gave an IC50 of 500 to 5000 nM. `CC(C)N(CC(F)(F)F)C(=N)OCc1ncc2c(n1)N(c1ccc(N3CCOCC3)nc1)C(=O)CC2` [Compound E148, 1-isopropyl-2-[[8-(6-morpholino-3-pyridyl)-7-oxo-5,6-dihydropyrido[2,3-d]pyrimidin-2-yl]methyl]-1-(2,2,2-trifluoroethyl)isourea] gave an IC50 greater than 5000 nM. Molecule `CC(C)N(CC(F)(F)F)C(=N)OCc1ncc2c(n1)N(c1ccc(N3CCOCC3)nc1)C(=O)C21CC1` [Compound E149] has an IC50 of 500 to 5000 nM. For `CC(C)N(CC(F)(F)F)C(=N)OCc1ncc2c(n1)N(c1ccc(N3CCCCC3)nc1)C(=O)C21CC1` [Compound E150], the IC50 was 100 to 500 nM. For `CN1CCCN=C1OCc1ncc2c(n1)N(c1ccc(Oc3ccccc3)cc1)CC2(C)C` [Compound E151, 5,5-dimethyl-2-(((1-methyl-1,4,5,6-tetrahydropyrimidin-2-yl)oxy)methyl)-7-(4-phenoxyphenyl)-6,7-dihydro-5H-pyrrolo[2,3-d]pyrimidine], the IC50 was greater than 5000 nM. `CNc1nc(COC(=N)N2CCCC2C(F)(F)F)nc2c1C(C)(C)C(=O)N2c1ccc(N2CCOCC2)cc1` (stereo not drawn) [Compound E152, [5,5-dimethyl-4-(methylamino)-7-(4-morpholinophenyl)-6-oxo-pyrrolo[2,3-d]pyrimidin-2 yl]methyl 2-(trifluoromethyl)pyrrolidine-1-carboximidate] showed an IC50 of less than 100 nM. Work on `CNc1nc(COC(=N)N2CCCCC2C(F)(F)F)nc2c1C(C)(C)C(=O)N2c1ccc(N2CCOCC2)cc1` (stereo not drawn) [Compound E153] yielded an IC50 of less than 100 nM. For `[2H]C([2H])(OC(=N)N(CC(F)(F)F)C(C)C)c1nc(N)c2c(n1)N(c1ccc(OC3CCCCC3)cc1)CC2(C)C` [Compound E154, ethyl (4-amino-7-(4-(cyclohexyloxy)phenyl)-5,5-dimethyl-6,7-dihydro-5H-pyrrolo[2,3-d]pyrimidin-2-yl)methyl-d2 isopropyl(2,2,2-trifluoroethyl)carbamimidate], the IC50 was less than 100 nM. For `[2H]C([2H])(OC(=N)N1CCCCC1C(F)(F)F)c1nc(N)c2c(n1)N(c1ccc(OC3CCCCC3)cc1)CC2(C)C` (stereo not drawn) [Compound E155], the IC50 was less than 100 nM. `CC(C)N(CC(F)(F)F)C(=N)OCc1ncc(C2CCCCO2)c(Nc2ccc(N3CCOCC3)nc2)n1` (stereo not drawn) [Compound E156, (4-((6-morpholinopyridin-3-yl)amino)-5-(tetrahydro-2H-pyran-2-yl)pyrimidin-2-yl)methyl isopropyl] showed an IC50 of 500 to 5000 nM.
